According to ChEMBL document CHEMBL1201862, “PubChem BioAssay data set” (2004):
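Assay format: 96-well plates, 48-hour exposure. GI50: concentration for 50% inhibition of growth.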 Active and inactive are the calls of the source. Cut-off read from the data, not from the text of the source: active = GI50 up to about 1.1 µM and inactive = higher.

Tests used:
Experiment in all cases: growth of human tumour cells (NCI), 48 h
[1] = system: UACC-257
[2] = system: RXF 393
[3] = system: DMS-273
[4] = system: EKVX
[5] = system: SW-620
[6] = system: HCT-116
[7] = system: SN12C
[8] = system: OVCAR-4
[9] = system: M19-MEL
[10] = system: DLD-1
[11] = system: NCI-H23
[12] = system: RPMI-8226
[13] = system: SR

Measured: GI50

C=CCCCN1CCCCC1=S
inactive: [1] > 100 µM | [2] > 100 µM | [3] > 100 µM | [4] > 100 µM | [5] > 100 µM | [6] > 100 µM | [7] > 100 µM | [8] > 100 µM | [9] > 100 µM | [10] > 100 µM | [11] > 100 µM | [12] > 100 µM | [13] > 100 µM

COc1cc(C=C2C(=O)OC(C)(C)OC2=O)cc(OC)c1OC
inactive: [1] > 100 µM | [2] > 100 µM | [3] > 100 µM | [4] > 100 µM | [5] > 100 µM | [6] > 100 µM | [7] > 100 µM | [8] > 100 µM | [9] > 100 µM | [10] > 100 µM | [11] > 100 µM | [12] > 100 µM | [13] > 100 µM

O=C(O)C1=Cc2cccc3cccc(c23)C1=O
inactive: [1] > 100 µM | [2] > 100 µM | [3] > 100 µM | [4] > 100 µM | [5] > 100 µM | [6] > 100 µM | [7] > 100 µM | [8] > 100 µM | [9] > 100 µM | [10] > 100 µM | [11] > 100 µM | [12] > 100 µM | [13] > 100 µM

COc1ccc(NC(=O)CC(=O)N2N=C(N(CCC#N)c3ccccc3Cl)CC2c2ccccc2)cc1 (configuration not stated)
inactive: [1] > 100 µM | [2] > 100 µM | [3] > 100 µM | [4] > 100 µM | [5] > 100 µM | [6] > 100 µM | [7] > 100 µM | [8] > 100 µM | [9] > 100 µM | [10] > 100 µM | [11] > 100 µM | [12] > 100 µM | [13] > 100 µM
